Measurements from PMC6534257, “Leishmania infantum arginase: biochemical characterization and inhibition by naturally occurring phenolic substances” (Journal of Enzyme Inhibition and Medicinal Chemistry, 2019).
Several values for one entry are separate records, joined by “and”; a condition that tells them apart may be missing. Equal entries are not always repeated.

Columns and labels:
[1] = system: Leishmania infantum arginase (ARGLi); experiment: ARGLi inhibition by phenolic substances (urea production); assay type: biochemical; details: 100 µM substance; 50 mM L-arginine, pH 9.5, 37 °C, 5 min
[2] = system: L. infantum promastigotes; experiment: Inhibition of L. infantum promastigotes growth (resazurin); assay type: cell-based, Leishmania infantum
Experimental: The parasite growth inhibition assays were performed on 96-well microplates, where the selected ARGLi inhibitors were previously diluted (1–200 μg/mL). Subsequently, promastigote forms of L. infantum collected in late logarithmic phase (96 h) were added to microplates at the final concentration of 10^6 parasites/mL. Microplates were incubated at 26 °C for 96 h. After the incubation period, parasites viability was determined using 0.005% resazurin[30]. The 50% inhibitory concentration (IC50) was determined from the dose-response curves generated from the data.

[3] = Cytotoxicity in RAW 264.7 macrophages (MTT); assay type: cell-based; details: mouse, RAW 264.7 macrophages, read-out: RAW 264.7 CC50±SE
Experimental: (§1) RAW 264.7 macrophages were cultured in polystyrene culture flasks containing DMEM medium supplemented with 10% FBS at 37 °C and 5% CO2 atmosphere. For cytotoxic evaluation, 48 h cultured cells were harvested, washed with culture medium, and distributed into 96-well culture plates at 10^5 cells/well concentration. The cells were allowed to adhere for 2 h prior to the addition of increasing inhibitor concentrations (31–1000 µg/mL). Treated cell cultures were incubated for 48 h under the same experimental conditions. After this period, cell viability was determined by colorimetric assay using MTT solution (5 mg/mL) as an indicator. The 50% cytotoxic concentration (CC50) was calculated by analysing the dose-response curves generated from the data.

RAW 264.7 macrophages = experiment: Cytotoxicity in RAW 264.7 macrophages (MTT); assay type: cell-based; details: 48 h
Experimental: as §1

[4] = system: L. infantum intracellular amastigotes; experiment: Intracellular anti-amastigote activity in infected RAW 264.7 macrophages; assay type: cell-based, Leishmania infantum
Experimental: (§2) The intracellular anti-amastigote activity was performed according to previously described procedures[31] with some modifications. Initially, RAW 264.7 macrophages were distributed in 96-well plates and, after adherence (incubation for 2 h), cells were washed twice with phosphate buffer saline (PBS, pH 7.2). Then, the adherent cells were infected with promastigote forms of L. infantum at the stationary phase of growth in a proportion of 10 parasites/macrophage. After 4 h of interaction at 37 °C and 5% CO2 atmosphere, free parasites were washed away with PBS and infected macrophages were incubated for another 24 h to allow differentiation into amastigotes. After this time, infected cells were treated for 48 h with increasing concentrations of the selected inhibitor. Subsequently, the culture supernatant was collected for evaluation of nitric oxide production using the Griess reaction. Cells were washed with PBS, then Schneider’s medium supplemented with 5% FBS was added and the plate was incubated at 26 °C for 72 h. The parasite survival was estimated by viability of differentiated promastigote forms recovered from the cultures using MTT (5 mg/mL). The results were expressed as the percentage of viability in relation to that obtained for the control (100%). The IC50 for amastigote forms was calculated from the dose-response curves generated from the data.

[5] = system: L. infantum-infected RAW 264.7 macrophages; experiment: Nitric oxide production by infected macrophages (Griess reaction); assay type: cell-based; details: 48 h treatment
Experimental: as §2
In order to determine if ARGLi inhibitors were capable of modulating the host cell response, RAW 264.7 macrophages were infected with promastigote forms of L. infantum and treated with different concentrations of inhibitors for 48 h. After treatment, NO production was measured. […] This increase is similar to that observed for the reference drug Fungizone® (Figure 5(B)). The effect of caffeic acid on NO production may be a result of macrophage arginase inhibition and consequent oxidation of accumulated L-arginine by inducible NO synthase (iNOS).
Figure 5. Nitric oxide production by L. infantum-infected RAW 264.7 macrophages treated with different concentrations of ARGLi inhibitors. (A) Treatment with 3.1–200 μg/mL of rosmarinic acid (black), caffeic acid (light gray), and catechin (dark gray). (B) Treatment with 0.062–0.5 μg/mL of the reference drug fungizone. Control (white) represents the production of nitric oxide by infected and untreated macrophages. Nitrite concentration was measured by the Griess reaction and data represent mean ± SE of two independent experiments.

[6] = system: L. amazonensis promastigotes; details: catechin isolated from Stryphnodendron obovatum stem bark ref 47; cited from earlier work

**Q.** For `Oc1cc(O)c2c(c1)O[C@H](c1ccc(O)c(O)c1)[C@@H](O)C2` [Catechin, catechin, reference compound], which “percentage of inhibition of ARGLi activity” value [1] is on record?
**A.** 49.02 ± 14.92%

**Q.** What about the “Promastigotes IC50±SE” value ([2]; 96 h, 26 °C, resazurin) of the same compound?
**A.** 114.8 ± 14.65 µg/mL

**Q.** What about the “SI PRO (selectivity index CC50/IC50, promastigotes)” value ([2]; CC50 RAW 264.7 / IC50 promastigotes) of the same compound?
**A.** 2.23

**Q.** What about the IC50 ([2]; Leishmania infantum, 96 h, 26 °C, resazurin, read-out: Promastigotes IC50±SE) of the same compound?
**A.** 115 µg/mL and 395 µM

**Q.** And the CC50 at 48 h [3]?
**A.** 257 µg/mL and 885 µM

**Q.** What about the “RAW 264.7 CC50±SE” value (RAW 264.7 macrophages) of the same compound?
**A.** 256.98 ± 0.64 µg/mL

**Q.** And the “SI AMA (selectivity index CC50/IC50, intracellular amastigotes)” value ([4]; CC50 RAW 264.7 / IC50 intracellular amastigotes)?
**A.** 3.08

**Q.** And the IC50 ([4]; Leishmania infantum, RAW264.7, 48 h, infected RAW 264.7, 48 h treatment, read-out: Intracellular amastigotes IC50±SE)?
**A.** 83.2 µg/mL and 287 µM

**Q.** And the “Intracellular amastigotes IC50±SE” value ([4]; infected RAW 264.7, 48 h treatment)?
**A.** 83.28 ± 10.6 µg/mL

**Q.** And the “effect on NO production by infected macrophages (in words)” value [5]?
**A.** did not affect NO production

**Q.** What about the “IC50 for L. amazonensis promastigotes” value [6] of the same compound?
**A.** 43.2 ± 2.1 µg/mL
